Experimental data reported in patent publication US20230263822A1, “MODULATION OF FACTOR 11 EXPRESSION” (Ionis Pharmaceuticals, Inc., priority 2008, published 2023).
Strand notation (5' to 3'): a small letter for the sugar, then the base; units joined by * are phosphorothioate-linked, units joined directly phosphodiester-linked; [ ] holds rarer units or linkages, { } end groups; capitals alone tell only the bases. e = 2'-O-(2-methoxyethyl) (MOE); [5mC] = 5-methylcytosine; d = 2'-deoxy (DNA)

Assays:
fibrinogen = assay: Fibrinogen assay (Example 45); type: in vivo, cynomolgus monkeys; details: plasma
Experimental: (§1) Groups, each consisting of two male and three female monkeys, were injected subcutaneously with ISIS 416838, ISIS 416850, ISIS 416858, ISIS 416864, or ISIS 417002 in escalating doses. Antisense oligonucleotide was administered to the monkeys at 5 mg/kg three times per a week for week 1; 5 mg/kg twice per week for weeks 2 and 3; 10 mg/kg three times per week for week 4; 10 mg/kg twice per week for weeks 5 and 6; 25 mg/kg three times per week for week 7; and 25 mg/kg twice per week for weeks 8, 9, 10, 11, and 12. One control group, consisting of two male and three female monkeys, was injected subcutaneously with PBS according to the same dosing regimen. An additional experimental group, consisting of two male and three female monkeys, was injected subcutaneously with ISIS 416850 in a chronic, lower dose regimen. Antisense oligonucleotide was administered to the monkeys at 5 mg/kg three times per week for week 1; 5 mg/kg twice per week for week 2 and 3; 10 mg/kg three times per week for week 4; and 10 mg/kg twice per week for weeks 5 to 12. Body weights were measured weekly. Blood samples were collected 14 days and 5 days before the start of treatment and subsequently once per week for Factor 11 protein activity analysis in plasma, fibrinogen measurement, PT and aPTT measurements, bleeding times, and measurement of various hematologic factors. On day 85, the monkeys were euthanized by exsanguination while under deep anesthesia, and organs harvested for further analysis.
Nine parts of fresh monkey plasma was collected into one part of trisodium citrate. The samples were evaluated of fibrinogen content using an ACL 9000 coagulation instrument (Instrumentation Laboratory, Italy). The ISIS oligonucleotide, ISIS 416850, given with the chronic dose regimen is distinguished from the other oligonucleotides with an asterisk (*).

platelet aggregation = assay: Platelet aggregation assay, ADP and/or collagen (Example 45); type: in vivo, cynomolgus monkeys
Experimental: as §1
Platelet aggregation was initiated by adding 1 mmol/L ADP and/or 3 μg collagen (depending on the collection day, as outlined in Table 121) to plasma samples, and was allowed to proceed for 10 minutes. Aggregation was characterized by recording the change in the electrical resistance or impedance and the change in the initial slope of aggregation after platelet shape change. The aggregation test was performed twice per sample on each collection day and the average value was taken. The ISIS oligonucleotide, ISIS 416850, given with the chronic dose regimen is distinguished from the other oligonucleotides with an asterisk (*).

human Factor 11 mRNA = assay: Dose-dependent inhibition of human Factor 11 in HepG2 cells, electroporation 123.46-10,000 nM (Example 31); type: cell-based; details: for Percent inhibition of Factor 11 mRNA at 123.47 nM / Percent inhibition of Factor 11 mRNA at 370.37 nM / IC50: electroporation; for Percent inhibition of Factor 11 mRNA at 123.47 nM / Percent inhibition of Factor 11 mRNA at 370.37 nM / Percent inhibition of Factor 11 mRNA at 1,111.11 nM / Percent inhibition of Factor 11 mRNA at 3,333.33 nM / Percent inhibition of Factor 11 mRNA at 10,000.0 nM: approx. 16 hours, relative to untreated control cells; for Percent inhibition of Factor 11 mRNA at 1,111.11 nM: electroporation, 1,111.11 nM; for Percent inhibition of Factor 11 mRNA at 3,333.33 nM: electroporation, 3,333.33 nM; for Percent inhibition of Factor 11 mRNA at 10,000.0 nM: electroporation, 10,000.0 nM; for IC50: Factor 11 mRNA expression
How it was run: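 HepG2 cells were electroporated with antisense oligonucleotide at 123.46, 370.37, 1,111.11, 3,333.33 and 10,000 nM and harvested about 16 hours later. Factor 11 mRNA was quantified by qRT-PCR and normalised to total RNA (RIBOGREEN). Inhibition is expressed relative to untreated cells.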

[1] = day 15, escalating dose regimen
[2] = day 22, escalating dose regimen
[3] = day 29, escalating dose regimen
[4] = day 36, escalating dose regimen
[5] = day 43, escalating dose regimen
[6] = day 50, escalating dose regimen
[7] = day 57, escalating dose regimen
[8] = day 64, escalating dose regimen
[9] = day 71, escalating dose regimen
[10] = day 78, escalating dose regimen
[11] = day 85, escalating dose regimen
[12] = day −5, escalating dose regimen
[13] = day −14, escalating dose regimen
[14] = day 15 (with ADP), escalating dose regimen
[15] = day 36 (with ADP), escalating dose regimen
[16] = day 43 (with collagen), escalating dose regimen
[17] = day 57 (with ADP), escalating dose regimen
[18] = day 64 (with collagen), escalating dose regimen
[19] = day 78 (with ADP), escalating dose regimen
[20] = day 85 (with ADP), escalating dose regimen
[21] = day 85 (with collagen), escalating dose regimen
[22] = day −5 (with collagen), escalating dose regimen

Substance | fibrinogen levels (fibrinogen; day 8, escalating dose regimen) [mg/dL] | fibrinogen levels (fibrinogen; [1]) [mg/dL] | fibrinogen levels (fibrinogen; [2]) [mg/dL] | fibrinogen levels (fibrinogen; [3]) [mg/dL] | fibrinogen levels (fibrinogen; [4]) [mg/dL] | fibrinogen levels (fibrinogen; [5]) [mg/dL] | fibrinogen levels (fibrinogen; [6]) [mg/dL] | fibrinogen levels (fibrinogen; [7]) [mg/dL] | fibrinogen levels (fibrinogen; [8]) [mg/dL] | fibrinogen levels (fibrinogen; [9]) [mg/dL] | fibrinogen levels (fibrinogen; [10]) [mg/dL] | fibrinogen levels (fibrinogen; [11]) [mg/dL] | fibrinogen levels (fibrinogen; [12]) [mg/dL] | fibrinogen levels (fibrinogen; [13]) [mg/dL] | platelet aggregation (platelet aggregation; [14]) [Ohms] | platelet aggregation (platelet aggregation; [15]) [Ohms] | platelet aggregation (platelet aggregation; [16]) [Ohms] | platelet aggregation (platelet aggregation; [17]) [Ohms] | platelet aggregation (platelet aggregation; [18]) [Ohms] | platelet aggregation (platelet aggregation; [19]) [Ohms] | further results
ISIS 416850: MOE gapmer, nucleobases 1275 to 1318 of SEQ ID NO: 1 (Table 8) (antisense TGCACAGTTTCTGGCAGGCC; MOE gapmer, wing and gap sizes not given here) | 281 | 270 | 243 | 234 | 232 | 219 | 215 | 186 | 190 | 178 | 177 | 187 | 261 | 310 | 12 | 16 | 16 | 18 | 17 | 9 | fibrinogen levels (fibrinogen; day 8, chronic dose regimen (*)): 232 mg/dL; fibrinogen levels (fibrinogen; day 15, chronic dose regimen (*)): 174 mg/dL; fibrinogen levels (fibrinogen; day 22, chronic dose regimen (*)): 192 mg/dL; fibrinogen levels (fibrinogen; day 29, chronic dose regimen (*)): 192 mg/dL; fibrinogen levels (fibrinogen; day 36, chronic dose regimen (*)): 185 mg/dL; fibrinogen levels (fibrinogen; day 43, chronic dose regimen (*)): 194 mg/dL; fibrinogen levels (fibrinogen; day 50, chronic dose regimen (*)): 204 mg/dL; fibrinogen levels (fibrinogen; day −5, chronic dose regimen (*)): 227 mg/dL; fibrinogen levels (fibrinogen; day −14, chronic dose regimen (*)): 274 mg/dL; platelet aggregation (platelet aggregation; day 15 (with ADP), chronic dose regimen (*)): 14 Ohms; platelet aggregation (platelet aggregation; day 36 (with ADP), chronic dose regimen (*)): 11.6 Ohms; platelet aggregation (platelet aggregation; day 43 (with collagen), chronic dose regimen (*)): 21 Ohms; platelet aggregation (platelet aggregation; [20]): 22 Ohms; platelet aggregation (platelet aggregation; [21]): 26 Ohms; platelet aggregation (platelet aggregation; day −5 (with collagen), chronic dose regimen (*)): 21 Ohms; platelet aggregation (platelet aggregation; [22]): 23 Ohms
ISIS 416864: MOE gapmer, nucleobases 1275 to 1318 of SEQ ID NO: 1 (Table 8) (antisense GGCAGCGGACGGCATTGGTG; MOE gapmer, wing and gap sizes not given here) | 227 | 210 | 184 | 205 | 202 | 198 | 233 | 200 | 218 | 245 | 250 | 240 | 243 | 300 | 20 | 17.8 | 20 | 18 | 17 | 13 | platelet aggregation (platelet aggregation; [20]): 22 Ohms; platelet aggregation (platelet aggregation; [21]): 28 Ohms; platelet aggregation (platelet aggregation; [22]): 27 Ohms
ISIS 416858: MOE gapmer, nucleobases 1275 to 1318 of SEQ ID NO: 1 (Table 8) (antisense ACGGCATTGGTGCACAGTTT; MOE gapmer, wing and gap sizes not given here) | 246 | 219 | 222 | 220 | 225 | 229 | 259 | 225 | 236 | 239 | 234 | 243 | 246 | 277 | 19 | 17 | 16 | 11 | 14 | 8 | platelet aggregation (platelet aggregation; [20]): 18 Ohms; platelet aggregation (platelet aggregation; [21]): 23 Ohms; platelet aggregation (platelet aggregation; [22]): 22 Ohms
445522 (antisense eG*e[5mC]*eA*e[5mC]*eA*dG*dT*dT*dT*d[5mC]*dT*dG*dG*e[5mC]*eA*eG*eG*e[5mC]) [compound 445522] |  |  |  |  |  |  |  |  |  |  |  |  |  |  |  |  |  |  |  |  | Percent inhibition of Factor 11 mRNA at 123.47 nM (human Factor 11 mRNA): 0%; Percent inhibition of Factor 11 mRNA at 370.37 nM (human Factor 11 mRNA): 0%; Percent inhibition of Factor 11 mRNA at 1,111.11 nM (human Factor 11 mRNA): 44%; Percent inhibition of Factor 11 mRNA at 3,333.33 nM (human Factor 11 mRNA): 63%; Percent inhibition of Factor 11 mRNA at 10,000.0 nM (human Factor 11 mRNA): 74%; IC50 (human Factor 11 mRNA): 2900 nM
445531 (antisense eG*eG*e[5mC]*eA*eT*dT*dG*dG*dT*dG*d[5mC]*dA*d[5mC]*eA*eG*eT*eT*eT) [compound 445531] |  |  |  |  |  |  |  |  |  |  |  |  |  |  |  |  |  |  |  |  | Percent inhibition of Factor 11 mRNA at 123.47 nM (human Factor 11 mRNA): 8%; Percent inhibition of Factor 11 mRNA at 370.37 nM (human Factor 11 mRNA): 16%; Percent inhibition of Factor 11 mRNA at 1,111.11 nM (human Factor 11 mRNA): 52%; Percent inhibition of Factor 11 mRNA at 3,333.33 nM (human Factor 11 mRNA): 61%; Percent inhibition of Factor 11 mRNA at 10,000.0 nM (human Factor 11 mRNA): 77%; IC50 (human Factor 11 mRNA): 1800 nM
416858 (antisense ACGGCATTGGTGCACAGTTT; 5-10-5 gapmer, further chemistry not given here) [compound 416858] |  |  |  |  |  |  |  |  |  |  |  |  |  |  |  |  |  |  |  |  | Percent inhibition of Factor 11 mRNA at 123.47 nM (human Factor 11 mRNA): 0%; Percent inhibition of Factor 11 mRNA at 370.37 nM (human Factor 11 mRNA): 27%; Percent inhibition of Factor 11 mRNA at 1,111.11 nM (human Factor 11 mRNA): 36%; Percent inhibition of Factor 11 mRNA at 3,333.33 nM (human Factor 11 mRNA): 64%; Percent inhibition of Factor 11 mRNA at 10,000.0 nM (human Factor 11 mRNA): 70%; IC50 (human Factor 11 mRNA): 2200 nM
416850 (antisense TGCACAGTTTCTGGCAGGCC; 5-10-5 gapmer, further chemistry not given here) [compound 416850] |  |  |  |  |  |  |  |  |  |  |  |  |  |  |  |  |  |  |  |  | Percent inhibition of Factor 11 mRNA at 123.47 nM (human Factor 11 mRNA): 0%; Percent inhibition of Factor 11 mRNA at 370.37 nM (human Factor 11 mRNA): 12%; Percent inhibition of Factor 11 mRNA at 1,111.11 nM (human Factor 11 mRNA): 36%; Percent inhibition of Factor 11 mRNA at 3,333.33 nM (human Factor 11 mRNA): 74%; Percent inhibition of Factor 11 mRNA at 10,000.0 nM (human Factor 11 mRNA): 73%; IC50 (human Factor 11 mRNA): 2800 nM
ISIS 417002: MOE gapmer, nucleobases 1275 to 1318 of SEQ ID NO: 1 (Table 8) (antisense GGTGCACAGTTTCTGGCAGG; MOE gapmer, wing and gap sizes not given here) | 221 | 195 | 199 | 199 | 191 | 187 | 236 | 201 | 236 | 228 | 221 | 224 | 222 | 291 | 16 | 13.9 | 19 | 18 | 18 | 18 | platelet aggregation (platelet aggregation; [20]): 22 Ohms; platelet aggregation (platelet aggregation; [21]): 24 Ohms; platelet aggregation (platelet aggregation; [22]): 21 Ohms
